≈ marks a conversion by molar mass, not a printed value.
Key:
B16 [1] = assay: In vitro cytotoxicity against B16 tumor cell lines.; format: functional, cell-based; conditions: Mus musculus
P388 [2] = assay: In vitro cytotoxicity against P388 tumor cell lines.; format: functional, cell-based; conditions: Mus musculus
SNU-16 = assay: In vitro cytotoxicity against SNU16 tumor cell lines.; format: functional, cell-based; conditions: Homo sapiens
B16 [3] = assay: In vivo antitumor activity was determined against B16 tumor cell lines in mice at dose of 0.03125 mg/kg administered intraperitoneally.; format: functional, Mus musculus; conditions: route intraperitoneal
B16 [4] = assay: In vivo antitumor activity was determined against B16 tumor cell lines in mice at dose of 0.0625 mg/kg administered intraperitoneally. (p<0.05); format: functional, Mus musculus; conditions: route intraperitoneal
B16 [5] = assay: In vivo antitumor activity was determined against B16 tumor cell lines in mice at dose of 0.25 mg/kg administered intraperitoneally. (p<0.05); format: functional, Mus musculus; conditions: route intraperitoneal
B16 [6] = assay: In vivo antitumor activity was determined against B16 tumor cell lines in mice at dose of 0.125 mg/kg administered intraperitoneally. (p<0.05); format: functional, Mus musculus; conditions: route intraperitoneal
B16 [7] = assay: In vivo antitumor activity was determined against B16 tumor cell lines in mice at dose of 1 mg/kg administered intraperitoneally. (p<0.05); format: functional, Mus musculus; conditions: route intraperitoneal
P388 [8] = assay: In vivo antitumor activity was determined against P388 tumor cell lines in mice at dose of 0.03125 mg/kg administered intraperitoneally.; format: functional, Mus musculus; conditions: route intraperitoneal
P388 [9] = assay: In vivo antitumor activity was determined against P388 tumor cell lines in mice at dose of 0.0625 mg/kg administered intraperitoneally.; format: functional, Mus musculus; conditions: route intraperitoneal
P388 [10] = assay: In vivo antitumor activity was determined against P388 tumor cell lines in mice at dose of 0.125 mg/kg administered intraperitoneally. (p<0.05); format: functional, Mus musculus; conditions: route intraperitoneal
P388 [11] = assay: In vivo antitumor activity was determined against P388 tumor cell lines in mice at dose of 0.25 mg/kg administered intraperitoneally. (p<0.05); format: functional, Mus musculus; conditions: route intraperitoneal
P388 [12] = assay: In vivo antitumor activity was determined against P388 tumor cell lines in mice at dose of 1 mg/kg administered intraperitoneally (p<0.05); format: functional, Mus musculus; conditions: route intraperitoneal
B16 [13] = assay: In vivo antitumor activity was determined against B16 tumor cell lines in mice at dose of 1 mg/kg administered intraperitoneally.; format: functional, Mus musculus; conditions: route intraperitoneal
P388 [14] = assay: In vivo antitumor activity was determined against P388 tumor cell lines in mice at dose of 1 mg/kg administered intraperitoneally.; format: functional, Mus musculus; conditions: route intraperitoneal
P388 [15] = assay: In vivo antitumor activity was determined against P388 tumor cell lines in mice at dose of 0.125 mg/kg administered intraperitoneally.; format: functional, Mus musculus; conditions: route intraperitoneal
P388 [16] = assay: In vivo antitumor activity was determined against P388 tumor cell lines in mice at dose of 0.25 mg/kg administered intraperitoneally.; format: functional, Mus musculus; conditions: route intraperitoneal

SMILES	IC50 (B16 [1]) [ng/mL]	IC50 (P388 [2]) [ng/mL]	IC50 (SNU-16) [ng/mL]	MST (B16 [13]) [days]	MST (P388 [14]) [days]	further results
CSC1[C@H]2C(=O)N(C)[C@@H](C(C)C)C(=O)OC[C@@H](NC(=O)c3cnc4ccccc4n3)C(=O)N[C@@H](C)C(=O)N(C)[C@@H](C[S+]1C)C(=O)N(C)[C@@H](C(C)C)C(=O)OC[C@@H](NC(=O)c1cnc3ccccc3n1)C(=O)N[C@@H](C)C(=O)N2C.[Cl-] (some centres undefined) [listing 1 of 2 here]	0.09	0.0081	0.0049			
CSC1[C@H]2C(=O)N(C)[C@@H](C(C)C)C(=O)OC[C@@H](NC(=O)c3cnc4ccccc4n3)C(=O)N[C@@H](C)C(=O)N(C)[C@@H](C[S+]1C)C(=O)N(C)[C@@H](C(C)C)C(=O)OC[C@@H](NC(=O)c1cnc3ccccc3n1)C(=O)N[C@@H](C)C(=O)N2C.[Cl-] (some centres undefined) [listing 2 of 2 here]						MST (B16 [3]): 23 days; MST (B16 [4]): 24 days; MST (B16 [5]): 26 days; MST (B16 [6]): 25 days; MST (B16 [7]): 28 days; MST (P388 [8]): 31 days; MST (P388 [9]): 32 days; MST (P388 [10]): 33 days; MST (P388 [11]): 34 days; MST (P388 [12]): 35 days
CC(C)[C@H]1C(=O)OC[C@@H](NC(=O)c2cnc3ccccc3n2)C(=O)N[C@@H](C)C(=O)N(C)[C@H]2CSC([S+](C)[O-])[C@@H](C(=O)N1C)N(C)C(=O)[C@H](C)NC(=O)[C@H](NC(=O)c1cnc3ccccc3n1)COC(=O)[C@H](C(C)C)N(C)C2=O (some centres undefined) [listing 1 of 2 here]	310 (≈ 277 nM)	8.8 (≈ 7.88 nM)	540 (≈ 483 nM)			
CC(C)[C@H]1C(=O)OC[C@@H](NC(=O)c2cnc3ccccc3n2)C(=O)N[C@@H](C)C(=O)N(C)[C@H]2CSC([S+](C)[O-])[C@@H](C(=O)N1C)N(C)C(=O)[C@H](C)NC(=O)[C@H](NC(=O)c1cnc3ccccc3n1)COC(=O)[C@H](C(C)C)N(C)C2=O (some centres undefined) [listing 2 of 2 here]				20	27	
CC(C)[C@H]1C(=O)OC[C@@H](NC(=O)c2cnc3ccccc3n2)C(=O)N[C@@H](C)C(=O)N(C)[C@H]2C[S+]([O-])C([S+](C)[O-])[C@@H](C(=O)N1C)N(C)C(=O)[C@H](C)NC(=O)[C@H](NC(=O)c1cnc3ccccc3n1)COC(=O)[C@H](C(C)C)N(C)C2=O (some centres undefined) [listing 1 of 2 here]	1700 (≈ 1500 nM)	98 (≈ 86.5 nM)	590 (≈ 521 nM)			
CC(C)[C@H]1C(=O)OC[C@@H](NC(=O)c2cnc3ccccc3n2)C(=O)N[C@@H](C)C(=O)N(C)[C@H]2C[S+]([O-])C([S+](C)[O-])[C@@H](C(=O)N1C)N(C)C(=O)[C@H](C)NC(=O)[C@H](NC(=O)c1cnc3ccccc3n1)COC(=O)[C@H](C(C)C)N(C)C2=O (some centres undefined) [listing 2 of 2 here]				17	31	
CC(C)[C@H]1C(=O)OC[C@@H](NC(=O)c2cnc3ccccc3n2)C(=O)N[C@@H](C)C(=O)N(C)[C@H]2CSC(S(C)(=O)=O)[C@@H](C(=O)N1C)N(C)C(=O)[C@H](C)NC(=O)[C@H](NC(=O)c1cnc3ccccc3n1)COC(=O)[C@H](C(C)C)N(C)C2=O (some centres undefined) [listing 1 of 2 here]	820 (≈ 724 nM)	60 (≈ 52.9 nM)	1100 (≈ 971 nM)			
CC(C)[C@H]1C(=O)OC[C@@H](NC(=O)c2cnc3ccccc3n2)C(=O)N[C@@H](C)C(=O)N(C)[C@H]2CSC(S(C)(=O)=O)[C@@H](C(=O)N1C)N(C)C(=O)[C@H](C)NC(=O)[C@H](NC(=O)c1cnc3ccccc3n1)COC(=O)[C@H](C(C)C)N(C)C2=O (some centres undefined) [listing 2 of 2 here]				17	25	
COc1cccc2c1C(=O)c1c(O)c3c(c(O)c1C2=O)C[C@@](O)(C(=O)CO)C[C@@H]3O[C@H]1C[C@H](N)[C@H](O)[C@H](C)O1 [DOXORUBICIN]	540 (≈ 994 nM)	9.6 (≈ 17.7 nM)	160 (≈ 294 nM)			
CS[C@H]1SC[C@H]2C(=O)N(C)[C@@H](C(C)C)C(=O)OC[C@@H](NC(=O)c3cnc4ccccc4n3)C(=O)N[C@@H](C)C(=O)N(C)[C@@H]1C(=O)N(C)[C@@H](C(C)C)C(=O)OC[C@@H](NC(=O)c1cnc3ccccc3n1)C(=O)N[C@@H](C)C(=O)N2C [ECHINOMYCIN]	6.5e-05 (≈ 5.9e-05 nM)	0.043 (≈ 0.039 nM)	0.00016 (≈ 0.000145 nM)	21	27	MST (B16 [3]): 23 days; MST (B16 [4]): 24 days; MST (B16 [5]): 23 days; MST (B16 [6]): 25 days; MST (P388 [8]): 31 days; MST (P388 [9]): 32 days; MST (P388 [15]): 33 days; MST (P388 [16]): 26 days

Reference: ChEMBL document CHEMBL1131512, “A new antitumor agent: methyl sulfonium perchlorate of echinomycin” (Bioorg Med Chem Lett, 1998)
